The subject of test [1] is human breast cancer cell line MDA-MB-231. Briefly: Cancer cell proliferation inhibitory activity evaluation 1 (CCK-8), MDA-MB-231. The format is cell-based. The protocol:
(§1) In order to identify whether the compound has anticancer activity, the human breast cancer cell line MDA-MB-231, the colorectal cancer cell line HT-29, the acute myeloid leukemia cell line U937, and the chronic myeloid leukemia cell line K562 were used. The cell line was cultured using RPMI-1640 medium containing 10% fetal bovine serum. Welgene products were used as the medium, and hyclone products were used for fetal bovine serum, and 1% of antibiotics for cell culture from Gibco were used as the culture medium.

For test [2], the system named is acute myeloid leukemia cell line U937. In words: Cancer cell proliferation inhibitory activity evaluation 1 (CCK-8), U937. The format is cell-based. The note with it: Homo sapiens, read-out: Cancer cell proliferation inhibitory activity U937. As to the method:
as §1

In test [3] the test system is colorectal cancer cell line HT-29. Briefly: Cancer cell proliferation inhibitory activity evaluation 1 (CCK-8), HT-29. The format is cell-based. To be noted: Homo sapiens, read-out: Cancer cell proliferation inhibitory activity HT29. As to the method: as §1
The test system of test [4] is chronic myeloid leukemia cell line K562. Briefly: Cancer cell proliferation inhibitory activity evaluation 1 (CCK-8), K562. The format is cell-based. The note with it: Homo sapiens, read-out: Cancer cell proliferation inhibitory activity K562. The protocol:
as §1

For test [5], the system named is acute myeloid leukemia cell line U937. In words: Cancer cell proliferation inhibitory activity evaluation 2 (CCK-8), U937. The format is cell-based. The note with it: Homo sapiens, read-out: Cancer cell proliferation inhibitory activity U937.
The test system of test [6] is acute lymphoblastic leukemia cell line Jurkat. In words: Cancer cell proliferation inhibitory activity evaluation 2 (CCK-8), Jurkat. The note with it: Homo sapiens. The format is cell-based.
Test [7] concerns gastric cancer cell line AGS. In words: Cancer cell proliferation inhibitory activity evaluation 2 (CCK-8), AGS. The format is cell-based. To be noted: Homo sapiens, read-out: Cancer cell proliferation inhibitory activity AGS.
For another test, the target named is MLK3 (Homo sapiens (Human), UniProt Q16584). Briefly: Evaluation of inhibitory activity of enzyme units, MLK3 ([γ-33P]-ATP filter assay).
Another test concerns the target LRRK2 wild-type (Homo sapiens (Human), UniProt Q5S007). Briefly: Evaluation of inhibitory activity against LRRK2 (affinity bead competition binding), wild-type. The note with it: read-out: Residual active values (%) LRRK2; for remaining binding at 0.1 µM: 100 nM; for remaining binding at 0.5 µM: 500 nM. The protocol:
(§2) In order to identify the activity inhibitory effect on the LRRK2 wild-type and LRRK2 mutant (G2019S) kinase of the example compound according to the present disclosure, BL21-derived E. coli bacteria (E. coli) were cultured in a 24-well plate until the growth phase (log phase). After culturing, T7 phage tagged with LRRK2 wild-type or LRRK2 mutant (G2019S) was used to infect the multiplicity of infection (MOI) at 0.4. Thereafter, the E. coli bacteria were stirred at 32° C. for 90 to 150 minutes to allow dissolution. The lysate of E. coli bacteria was centrifuged (6,000×g) and filtered (0.2 μm), and the obtained tagged T7 phage […] a DNA-tagged kinase protein (LRRK2 or LRRK2 G2019S) was obtained.
(§3) After blocking the biotinylated ligand with extra biotin, it is washed with Pierce's buffer, SeaBlock (1% BSA, 0.05% Tween 20, 1 mM DTT) to remove unbound ligand and reduce non-specific binding.
(§4) The compound was prepared at a concentration of 40× in 100% DMSO and used after dilution, and all binding reactions were performed in a final volume of 0.02 ml in a 384-well plate.
(§5) The activity inhibitory effect on the LRRK2 wild-type and LRRK2 mutant (G2019S) kinases of the example compounds according to the present disclosure was measured and shown in Table 10 below.

Another test deals with LRRK2 mutant (G2019S) (Homo sapiens (Human), UniProt Q5S007, G2019S). Briefly: Evaluation of inhibitory activity against LRRK2 (affinity bead competition binding), G2019S mutant. To be noted: read-out: Residual active values (%) LRRK2(G2019S); for remaining binding at 0.1 µM: 100 nM; for remaining binding at 0.5 µM: 500 nM. As to the method:
as §2, §3, §4, §5

The target of a further test is MLK1 (Homo sapiens (Human), UniProt P80192). In words: Evaluation of inhibitory activity of enzyme units, MLK1 ([γ-33P]-ATP filter assay). The format is biochemical.
The subject of test [8] is gastric cancer cell line Hs746T. In words: Cancer cell proliferation inhibitory activity evaluation 2 (CCK-8), Hs746T. To be noted: Homo sapiens, 10 μM, 72 hours, CCK-8, read-out: Cancer cell proliferation inhibitory activity Hs746T. The format is cell-based.
The subject of test [9] is human lung cancer cell line A549. In words: Cancer cell proliferation inhibitory activity evaluation 2 (CCK-8), A549. The format is cell-based. To be noted: A549, 10 μM, 72 hours, CCK-8, read-out: Cancer cell proliferation inhibitory activity A549.
Where [10] appears, read: MDA-MB-231, 10 μM, 72 hours, CCK-8, read-out: Cancer cell proliferation inhibitory activity MDAMB231.
The mark [11] stands for this setting: U-937, 10 μM, 72 hours, CCK-8 (Table 2).
Where [12] appears, read: U-937, 10 μM, 72 hours, CCK-8 (Table 3).
Where [13] appears, read: 10 μM, 72 hours, CCK-8, read-out: Cancer cell proliferation inhibitory activity Jurkat.
The mark [14] stands for this setting: MDA-MB-231, 72 h, read-out: Cancer cell proliferation inhibitory activity MDAMB231.
Setting [15] is: 72 h, read-out: Cancer cell proliferation inhibitory activity Jurkat.

Like-named read-outs stand apart in the source and are kept apart here. Bounds are passed on as bounds.

This is an account of results in patent publication US12545673B2, “Imidazopyridine derivative and pharmaceutical composition comprising same as active ingredient” (TSD LIFE SCIENCES CO., LTD., priority 2019, dated 2026).

Chain of LRRK2 wild-type (Q5S007 whole entry, looked up): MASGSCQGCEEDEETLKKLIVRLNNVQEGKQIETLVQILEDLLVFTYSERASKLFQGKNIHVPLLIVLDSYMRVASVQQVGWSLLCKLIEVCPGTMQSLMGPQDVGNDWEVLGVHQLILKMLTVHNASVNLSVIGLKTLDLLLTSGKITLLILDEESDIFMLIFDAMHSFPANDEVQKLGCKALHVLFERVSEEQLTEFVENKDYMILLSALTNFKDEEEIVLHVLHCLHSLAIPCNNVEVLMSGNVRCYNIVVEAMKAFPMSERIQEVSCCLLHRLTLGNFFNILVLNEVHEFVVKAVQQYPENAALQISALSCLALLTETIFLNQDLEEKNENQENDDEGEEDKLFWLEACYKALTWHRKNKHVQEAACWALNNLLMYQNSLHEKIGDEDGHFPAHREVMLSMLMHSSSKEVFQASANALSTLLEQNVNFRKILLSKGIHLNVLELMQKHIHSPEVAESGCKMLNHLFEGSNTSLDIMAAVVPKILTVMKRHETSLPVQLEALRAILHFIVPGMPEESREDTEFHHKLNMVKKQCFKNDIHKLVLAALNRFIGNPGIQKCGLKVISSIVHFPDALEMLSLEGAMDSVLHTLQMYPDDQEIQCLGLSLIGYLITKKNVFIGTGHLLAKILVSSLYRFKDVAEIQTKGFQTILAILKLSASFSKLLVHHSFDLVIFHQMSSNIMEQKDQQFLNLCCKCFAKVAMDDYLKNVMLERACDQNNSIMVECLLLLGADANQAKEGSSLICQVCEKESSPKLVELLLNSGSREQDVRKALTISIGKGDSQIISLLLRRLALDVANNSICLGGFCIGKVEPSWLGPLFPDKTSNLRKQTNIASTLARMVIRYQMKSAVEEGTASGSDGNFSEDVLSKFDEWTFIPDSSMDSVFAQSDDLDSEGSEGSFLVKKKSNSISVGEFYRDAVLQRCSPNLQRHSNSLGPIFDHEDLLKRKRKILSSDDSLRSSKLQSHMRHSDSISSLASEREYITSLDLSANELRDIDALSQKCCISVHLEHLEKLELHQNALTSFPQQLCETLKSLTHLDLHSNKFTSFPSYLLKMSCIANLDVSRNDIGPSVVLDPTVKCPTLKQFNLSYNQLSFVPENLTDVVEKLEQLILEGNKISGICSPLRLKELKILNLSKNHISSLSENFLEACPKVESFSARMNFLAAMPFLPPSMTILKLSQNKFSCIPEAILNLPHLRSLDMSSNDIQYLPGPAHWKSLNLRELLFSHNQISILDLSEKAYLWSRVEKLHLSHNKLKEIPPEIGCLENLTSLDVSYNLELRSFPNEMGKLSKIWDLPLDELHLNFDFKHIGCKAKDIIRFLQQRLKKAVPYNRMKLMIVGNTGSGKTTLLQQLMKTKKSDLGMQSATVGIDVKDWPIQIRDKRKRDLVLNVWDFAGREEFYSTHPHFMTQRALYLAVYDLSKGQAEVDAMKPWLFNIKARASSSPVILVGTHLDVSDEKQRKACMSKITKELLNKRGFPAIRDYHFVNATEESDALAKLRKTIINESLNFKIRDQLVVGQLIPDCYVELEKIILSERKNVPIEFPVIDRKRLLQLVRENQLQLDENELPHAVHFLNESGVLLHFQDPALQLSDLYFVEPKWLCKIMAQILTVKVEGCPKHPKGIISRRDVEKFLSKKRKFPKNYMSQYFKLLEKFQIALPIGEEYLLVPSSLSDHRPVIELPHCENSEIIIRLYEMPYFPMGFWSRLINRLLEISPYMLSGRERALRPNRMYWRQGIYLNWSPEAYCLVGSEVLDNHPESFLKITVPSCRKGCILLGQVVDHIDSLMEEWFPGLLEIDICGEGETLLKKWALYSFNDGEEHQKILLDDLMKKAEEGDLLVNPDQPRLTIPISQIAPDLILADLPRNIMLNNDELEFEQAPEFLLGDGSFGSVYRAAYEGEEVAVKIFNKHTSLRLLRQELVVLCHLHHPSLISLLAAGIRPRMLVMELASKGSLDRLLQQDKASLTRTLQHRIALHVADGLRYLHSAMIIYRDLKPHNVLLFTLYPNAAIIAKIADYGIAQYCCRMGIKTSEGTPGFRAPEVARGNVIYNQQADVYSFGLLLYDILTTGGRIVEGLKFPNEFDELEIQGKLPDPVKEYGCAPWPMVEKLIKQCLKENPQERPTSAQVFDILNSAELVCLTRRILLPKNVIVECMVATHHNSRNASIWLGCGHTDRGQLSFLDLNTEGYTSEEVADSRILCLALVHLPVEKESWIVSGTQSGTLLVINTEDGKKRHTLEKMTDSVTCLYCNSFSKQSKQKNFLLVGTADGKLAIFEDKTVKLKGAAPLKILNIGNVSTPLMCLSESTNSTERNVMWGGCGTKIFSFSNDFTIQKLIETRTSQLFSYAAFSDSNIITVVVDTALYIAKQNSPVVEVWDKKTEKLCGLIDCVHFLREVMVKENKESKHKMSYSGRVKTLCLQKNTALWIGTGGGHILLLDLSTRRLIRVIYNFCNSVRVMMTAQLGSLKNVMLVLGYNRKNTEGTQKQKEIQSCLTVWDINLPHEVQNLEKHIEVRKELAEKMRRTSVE
Chain of MLK3 (Q16584 whole entry, looked up): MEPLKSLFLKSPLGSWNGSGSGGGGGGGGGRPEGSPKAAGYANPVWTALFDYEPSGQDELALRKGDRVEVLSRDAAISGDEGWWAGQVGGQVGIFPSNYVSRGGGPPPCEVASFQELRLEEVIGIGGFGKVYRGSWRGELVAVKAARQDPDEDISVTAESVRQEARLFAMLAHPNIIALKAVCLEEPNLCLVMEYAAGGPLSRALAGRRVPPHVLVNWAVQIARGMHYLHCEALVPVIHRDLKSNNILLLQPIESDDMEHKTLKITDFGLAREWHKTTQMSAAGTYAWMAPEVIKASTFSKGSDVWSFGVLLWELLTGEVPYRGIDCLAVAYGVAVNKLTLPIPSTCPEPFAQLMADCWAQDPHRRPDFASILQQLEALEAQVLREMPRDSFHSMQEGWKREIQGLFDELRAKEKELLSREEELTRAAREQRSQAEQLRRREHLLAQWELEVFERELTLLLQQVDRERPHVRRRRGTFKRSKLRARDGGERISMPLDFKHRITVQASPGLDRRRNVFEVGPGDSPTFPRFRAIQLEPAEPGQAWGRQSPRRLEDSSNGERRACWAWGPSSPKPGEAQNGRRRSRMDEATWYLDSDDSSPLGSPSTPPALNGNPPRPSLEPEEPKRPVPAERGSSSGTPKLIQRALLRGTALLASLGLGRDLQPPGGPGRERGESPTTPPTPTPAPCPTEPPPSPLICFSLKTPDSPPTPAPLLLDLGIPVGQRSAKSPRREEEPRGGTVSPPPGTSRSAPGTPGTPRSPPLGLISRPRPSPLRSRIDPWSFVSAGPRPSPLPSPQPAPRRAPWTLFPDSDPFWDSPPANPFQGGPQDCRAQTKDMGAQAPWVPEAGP
Chain of LRRK2 mutant (G2019S) (Q5S007 whole entry G2019S, looked up): as the sequence (Q5S007 whole entry, looked up) above, with G2019S counted along it
Chain of MLK1 (P80192 whole entry, looked up): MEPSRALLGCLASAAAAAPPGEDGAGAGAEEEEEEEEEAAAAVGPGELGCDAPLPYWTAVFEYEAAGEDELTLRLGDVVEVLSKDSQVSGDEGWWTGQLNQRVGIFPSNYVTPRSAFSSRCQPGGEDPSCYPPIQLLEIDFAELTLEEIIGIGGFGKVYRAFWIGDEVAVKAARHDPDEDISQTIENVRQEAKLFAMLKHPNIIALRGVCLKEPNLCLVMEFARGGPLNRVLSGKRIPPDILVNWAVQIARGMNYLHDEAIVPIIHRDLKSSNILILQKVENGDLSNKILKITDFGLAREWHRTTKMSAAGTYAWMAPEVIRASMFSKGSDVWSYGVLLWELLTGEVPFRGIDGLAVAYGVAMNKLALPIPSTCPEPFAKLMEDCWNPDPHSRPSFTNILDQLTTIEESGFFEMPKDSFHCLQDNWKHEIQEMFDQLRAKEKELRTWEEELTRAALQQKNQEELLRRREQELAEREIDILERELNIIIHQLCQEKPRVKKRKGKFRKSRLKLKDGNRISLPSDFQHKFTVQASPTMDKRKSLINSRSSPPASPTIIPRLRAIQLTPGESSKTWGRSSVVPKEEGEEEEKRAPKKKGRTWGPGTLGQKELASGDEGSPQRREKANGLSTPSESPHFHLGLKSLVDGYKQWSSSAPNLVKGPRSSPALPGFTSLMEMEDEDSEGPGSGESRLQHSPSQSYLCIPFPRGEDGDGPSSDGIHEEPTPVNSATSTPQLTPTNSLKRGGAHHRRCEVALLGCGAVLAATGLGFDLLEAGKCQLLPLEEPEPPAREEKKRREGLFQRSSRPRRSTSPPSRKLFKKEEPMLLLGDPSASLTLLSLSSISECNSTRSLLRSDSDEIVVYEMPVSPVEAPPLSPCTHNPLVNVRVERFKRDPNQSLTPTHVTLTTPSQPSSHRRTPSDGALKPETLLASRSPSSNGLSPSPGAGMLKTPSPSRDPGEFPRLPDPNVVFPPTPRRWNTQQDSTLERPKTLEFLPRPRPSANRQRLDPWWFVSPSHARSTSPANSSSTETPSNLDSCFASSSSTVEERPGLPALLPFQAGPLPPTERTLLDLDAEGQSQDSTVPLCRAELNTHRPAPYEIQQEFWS

With `CCS(=O)(=O)N1CC[C@H](Nc2c(Br)cnc3[nH]c(-c4cc(C)n(-c5ccc(N6CCOCC6)cc5)c4C)nc23)C1` [Example 1, (S)-6-bromo-2-(2,5-dimethyl-1-(4-morpholinophenyl)-1H-pyrrol-3-yl)-N-(1-(ethylsulfonyl)pyrrolidine-3-yl)-3H-imidazo[4,5-b]pyridine-7-amine], the inhibition at 10 µM in test [1] (setting [10]) was 10 to 50%; in test [2] (setting [11]) it was 10 to 50%; in [3] (HT-29, 10 μM, 72 hours, CCK-8), 10 to 50%; in test [4] (K562, 10 μM, 72 hours, CCK-8) it was less than 10%; in test [5] (setting [12]), 10 to 50%; in test [6] (setting [13]) it was 10 to 50%. Besides, in test [7] (10 μM, 72 hours, CCK-8), the inhibition at 10 µM lay in the range of 10 to 50%. On MLK3, this molecule returned an IC50 of 4 nM.
For the molecule `CCS(=O)(=O)N1CC[C@H](Nc2c(Br)cnc3[nH]c(-c4cc(C)n(-c5c(Cl)cccc5Cl)c4C)nc23)C1` [Example 13, (S)-6-bromo-2-(1-(2,6-dichlorophenyl)-2,5-dimethyl-1H-pyrrol-3-yl)-N-(1-(ethylsulfonyl)pyrrolidine-3-yl)-3H-imidazo[4,5-b]pyridine-7-amine], the inhibition at 10 µM in [1] (setting [14]) is 10 to 50%; in test [2] (U-937, 72 h) it was greater than 50%; in [3] (HT-29, 72 h), 10 to 50%; in test [4] (K562, 72 h) it was 10 to 50%; in test [5] (U-937, 72 h), 10 to 50%; in test [6] (setting [15]) it was greater than 50%. Also, the inhibition at 10 µM in test [7] (72 h) is greater than 50%. The IC50 on MLK3 (read-out: IC50(nM) MLK3) is 7 nM.
With `CCS(=O)(=O)N1CC[C@H](Nc2c(Br)cnc3[nH]c(-c4cc(C)n(-c5cc(Cl)ccc5Cl)c4C)nc23)C1` [Example 14, 6-bromo-2-(1-(2,5-dichlorophenyl)-2,5-dimethyl-1H-pyrrol-3-yl)-N—((S)-1-(ethylsulfonyl)pyrrolidine-3-yl)-3H-imidazo[4,5-b]pyridine-7-amine], the inhibition at 10 µM is less than 10% in test [1] (setting [10]); 10 to 50% in test [2] (setting [11]); 10 to 50% in [3] (HT-29, 10 μM, 72 hours, CCK-8); less than 10% in test [4] (K562, 10 μM, 72 hours, CCK-8); 10 to 50% in test [5] (setting [12]); 10 to 50% in test [6] (setting [13]). The inhibition at 10 µM in test [7] (10 μM, 72 hours, CCK-8) is 10 to 50%. On MLK3, this molecule showed an IC50 of 17 nM.
For the molecule `CCS(=O)(=O)N1CC[C@H](Nc2c(Br)cnc3[nH]c(-c4cc(C)n(-c5ccc(Cl)c(Cl)c5)c4C)nc23)C1` [Example 15, (S)-6-bromo-2-(1-(3,4-dichlorophenyl)-2,5-dimethyl-1H-pyrrol-3-yl)-N-(1-(ethylsulfonyl)pyrrolidine-3-yl)-3H-imidazo[4,5-b]pyridine-7-amine], the inhibition at 10 µM in test [1] (setting [14]) was greater than 50%; in test [2] (U-937, 72 h), 10 to 50%; in test [3] (HT-29, 72 h), less than 10%; in test [4] (K562, 72 h), 10 to 50%; in test [5] (U-937, 72 h), 10 to 50%; in test [6] (setting [15]) it was less than 10%. In [7] (72 h), the inhibition at 10 µM fell in the range of 10 to 50%. In addition, the IC50 on MLK3 (read-out: IC50(nM) MLK3) was 34 nM.
Turning to `CCS(=O)(=O)N1CC[C@H](Nc2c(Br)cnc3[nH]c(-c4cc(C)n(-c5ccccc5Cl)c4C)nc23)C1` [Example 16, 6-bromo-2-(1-(2-chlorophenyl)-2,5-dimethyl-1H-pyrrol-3-yl)-N—((S)-1-(ethylsulfonyl)pyrrolidine-3-yl)-3H-imidazo[4,5-b]pyridine-7-amine], the inhibition at 10 µM in [1] (setting [10]) is 10 to 50%; in test [2] (setting [11]), greater than 50%; in test [3] (HT-29, 10 μM, 72 hours, CCK-8), 10 to 50%; in test [4] (K562, 10 μM, 72 hours, CCK-8), greater than 50%; in test [5] (setting [12]), less than 10%; in [6] (setting [13]), 10 to 50%. For the same molecule, the inhibition at 10 µM in test [7] (10 μM, 72 hours, CCK-8) was 10 to 50%. For the same molecule, on MLK3, the IC50 came to 11 nM.
As to `Cc1cc(-c2nc3c(Nc4cccc(S(N)(=O)=O)c4)c(Br)cnc3[nH]2)c(C)n1-c1c(Cl)cccc1Cl` [Example 26, 3-((6-bromo-2-(1-(2,6-dichlorophenyl)-2,5-dimethyl-1H-pyrrol-3-yl)-3H-imidazo[4,5-b]pyridine-7-yl)amino)benzenesulfonamide], the inhibition at 10 µM is 10 to 50% in test [1] (setting [10]); 10 to 50% in test [2] (setting [11]); 10 to 50% in test [3] (HT-29, 10 μM, 72 hours, CCK-8); less than 10% in test [4] (K562, 10 μM, 72 hours, CCK-8); 10 to 50% in [5] (setting [12]); 10 to 50% in test [6] (setting [13]). Besides, in [7] (10 μM, 72 hours, CCK-8), the inhibition at 10 µM was in the range of 10 to 50%. Further, the half-inhibitory concentration (IC50) on MLK3 (read-out: IC50(nM) MLK3) came out at 19 nM.
In the case of `CCS(=O)(=O)N1CC[C@H](Nc2c(Cl)cnc3nc(-c4cc(C)n(-c5cccc(C(=O)N6CCOCC6)c5)c4C)[nH]c23)C1` [Example 54, (S)-(3-(3-(6-chloro-7-((1-(ethylsulfonyl)pyrrolidine-3-yl)amino)-1H-imidazo[4,5-b]pyridine-2-yl)-2,5-dimethyl-1H-pyrrol-1-yl)phenyl) (morpholino) methanone], the remaining binding at 0.1 µM stood at 24% at LRRK2 wild-type and 6.3% on LRRK2 mutant (G2019S). Moreover, the remaining binding at 0.5 µM is 4.1% at LRRK2 wild-type and 0.4% on LRRK2 mutant (G2019S).
Take `Cc1ccc(C(=O)N2CCOCC2)cc1-n1c(C)cc(-c2nc3ncc(Br)c(Nc4cccc(S(N)(=O)=O)c4)c3[nH]2)c1C` [Example 94, 3-((6-bromo-2-(2,5-dimethyl-1-(2-methyl-5-(morpholine-4-carbonyl)phenyl)-1H-pyrrol-3-yl)-1H-imidazo[4,5-b]pyridine-7-yl)amino)benzenesulfonamide]: the concentration for half-maximal inhibition (IC50) at MLK1 was 52 nM; on MLK3 (read-out: IC50(nM) MLK3), 73 nM. Also, the inhibition at 10 µM in test [5] (setting [12]) was 10 to 50%; in test [6] (setting [13]) it was 10 to 50%; in [7] (10 μM, 72 hours, CCK-8), 10 to 50%; in test [8], greater than 50%; in [9], less than 10%. For the same molecule, the remaining binding at 0.1 µM at LRRK2 wild-type is 70%; on LRRK2 mutant (G2019S) it was 59%. Also, the values for the remaining binding at 0.5 µM on LRRK2 wild-type and on LRRK2 mutant (G2019S) were 40% and 16%, respectively.
Consider `CCS(=O)(=O)N1CC[C@H](Nc2c(Br)cnc3[nH]c(-c4cc(C)n(-c5ccc(C(=O)N6CCOCC6)cc5C)c4C)nc23)C1` [Example 98, (4-(3-(6-bromo-7-(((S)-1-(ethylsulfonyl)pyrrolidine-3-yl)amino)-3H-imidazo[4,5-b]pyridine-2-yl)-2,5-dimethyl-1H-pyrrol-1-yl)-3-methylphenyl) (morpholino) methanone], for which the inhibition at 10 µM is greater than 50% in test [5] (setting [12]); greater than 50% in test [6] (setting [13]); greater than 50% in test [7] (10 μM, 72 hours, CCK-8); greater than 50% in test [8]; 10 to 50% in test [9]. The results for the remaining binding at 0.1 µM at LRRK2 wild-type and at LRRK2 mutant (G2019S) were 18% and 8.2%, respectively. Further, the figures for the remaining binding at 0.5 µM on LRRK2 wild-type and at LRRK2 mutant (G2019S) were 3.5% and 1%, respectively.

A word on the IC50: it is the midpoint of a concentration-inhibition curve.
